# Experimental data taken from PubChem BioAssay AID330 (DTP/NCI, 2004).
# Where “and” joins values, the source holds several entries; their conditions need not be identical. Equal entries are not always repeated. Toxic doses and inconclusive results are not listed.
# Tested on: P388 leukemia ip, CD2F1 mice, survival T/C
# Assay: NCI In Vivo Anticancer Drug Screen. Data for tumor model P388 Leukemia (intraperitoneal) in CD2F1 (CDF1) mice
# Details: endpoint: median survival time, higher = longer survival
# Outline: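 Mice carrying the transplanted tumor received test compound or vehicle. Survival was recorded in each group, and the value is the treated-group measurement divided by that of the vehicle-treated control group.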
# [1] = dose: 12.5 mg/kg/injection, schedule: Q01DX009 (ip), vehicle: saline with Tween-80
# [2] = dose: 25.0 mg/kg/injection, schedule: Q01DX009 (ip), vehicle: saline with Tween-80
# [3] = dose: 50.0 mg/kg/injection, schedule: Q01DX009 (ip), vehicle: saline with Tween-80
# [4] = dose: 0.25 mg/kg/injection, schedule: Q01DX009 (ip), vehicle: saline with Tween-80
# [5] = dose: 0.5 mg/kg/injection, schedule: Q01DX009 (ip), vehicle: saline with Tween-80
# [6] = dose: 1.0 mg/kg/injection, schedule: Q01DX009 (ip), vehicle: saline with Tween-80
# [7] = dose: 60.0 mg/kg/injection, schedule: Q01DX005 (ip), vehicle: Klucel (hydroxypropylcellulose) (HPC)
# [8] = dose: 120.0 mg/kg/injection, schedule: Q01DX005 (ip), vehicle: Klucel (hydroxypropylcellulose) (HPC)
# [9] = dose: 100.0 mg/kg/injection, schedule: Q01DX009 (ip), vehicle: saline with Tween-80
# [10] = dose: 200.0 mg/kg/injection, schedule: Q01DX009 (ip), vehicle: saline with Tween-80
# [11] = dose: 100.0 mg/kg/injection, schedule: Q04DX003 (ip), vehicle: saline with Tween-80
# [12] = dose: 200.0 mg/kg/injection, schedule: Q04DX003 (ip), vehicle: saline with Tween-80
# [13] = dose: 50.0 mg/kg/injection, schedule: Q01DX005 (ip), vehicle: saline
# [14] = dose: 100.0 mg/kg/injection, schedule: Q01DX005 (ip), vehicle: saline
# [15] = dose: 50.0 mg/kg/injection, schedule: Q01DX005 (ip), vehicle: saline with Tween-80
# [16] = dose: 120.0 mg/kg/injection, schedule: Q01DX005 (ip), vehicle: saline with Tween-80
# [17] = dose: 200.0 mg/kg/injection, schedule: Q01DX005 (ip), vehicle: saline with Tween-80
# [18] = dose: 60.0 mg/kg/injection, schedule: Q01DX005 (ip), vehicle: saline with Tween-80
# [19] = dose: 100.0 mg/kg/injection, schedule: Q01DX001 (ip), vehicle: saline with Tween-80
# [20] = dose: 200.0 mg/kg/injection, schedule: Q01DX001 (ip), vehicle: saline with Tween-80
# [21] = dose: 100.0 mg/kg/injection, schedule: Q01DX005 (ip), vehicle: saline with Tween-80
compound,measurement,setting,value
O=C(CCS(=O)(=O)CCC(=O)C(c1ccccc1)c1ccccc1)C(c1ccccc1)c1ccccc1,T/C,"dose: 100.0 mg/kg/injection, schedule: Q04DX003 (ip), vehicle: saline",97 % of control
same,T/C,"dose: 200.0 mg/kg/injection, schedule: Q04DX003 (ip), vehicle: saline",94 % of control
same,T/C,"dose: 400.0 mg/kg/injection, schedule: Q04DX003 (ip), vehicle: saline",90 % of control
CCOc1ccc(C(C#N)N(C)C)cc1OCC (configuration not stated),T/C,[1],105 % of control
same,T/C,[2],100 % of control
same,T/C,[3],86 % of control and 92 % of control
CC(=O)OC(C)(C)/C=C/C(=O)[C@](C)(O)[C@H]1[C@H](O)C[C@@]2(C)[C@@H]3CC=C4[C@@H](C[C@H](O)C(=O)C4(C)C)[C@]3(C)C(=O)C[C@]12C,T/C,"dose: 0.13 mg/kg/injection, schedule: Q01DX010 (ip), vehicle: saline",95 % of control
same,T/C,[4],104 % of control
same,T/C,"dose: 0.25 mg/kg/injection, schedule: Q01DX010 (ip), vehicle: saline",104 % of control
same,T/C,[5],100 % of control
same,T/C,"dose: 0.5 mg/kg/injection, schedule: Q01DX010 (ip), vehicle: saline",100 % of control
same,T/C,"dose: 0.62 mg/kg/injection, schedule: Q01DX009 (ip), vehicle: saline",113 % of control
same,T/C,[6],109 % of control
same,T/C,"dose: 1.0 mg/kg/injection, schedule: Q01DX010 (ip), vehicle: saline",104 % of control
same,T/C,"dose: 1.25 mg/kg/injection, schedule: Q01DX009 (ip), vehicle: saline",117 % of control
same,T/C,"dose: 2.0 mg/kg/injection, schedule: Q01DX009 (ip), vehicle: saline with Tween-80",118 % of control
same,T/C,"dose: 2.5 mg/kg/injection, schedule: Q01DX009 (ip), vehicle: saline",117 % of control
same,T/C,"dose: 5.0 mg/kg/injection, schedule: Q01DX009 (ip), vehicle: saline",113 % of control
same,T/C,"dose: 10.0 mg/kg/injection, schedule: Q01DX009 (ip), vehicle: saline",113 % of control
Ic1cc2c(cc1C1CO1)OCO2 (configuration not stated),T/C,"dose: 100.0 mg/kg/injection, schedule: Q01DX001 (ip), vehicle: Klucel (hydroxypropylcellulose) (HPC)",103 % of control
same,T/C,"dose: 200.0 mg/kg/injection, schedule: Q01DX001 (ip), vehicle: Klucel (hydroxypropylcellulose) (HPC)",99 % of control
same,T/C,"dose: 400.0 mg/kg/injection, schedule: Q01DX001 (ip), vehicle: Klucel (hydroxypropylcellulose) (HPC)",96 % of control
CC(=O)c1c(O)c2cccc3c2n(c1=O)CCC3,T/C,[7],96 % of control
same,T/C,[8],97 % of control
Cc1ccc(NNC2=NC(=S)NC(=O)C2)cc1,T/C,[3],111 % of control
same,T/C,[9],95 % of control
same,T/C,[10],104 % of control
Clc1ccc(-c2ncnc3c2Cc2ccccc2-3)cc1,T/C,[11],104 % of control
same,T/C,[12],100 % of control
same,T/C,"dose: 400.0 mg/kg/injection, schedule: Q04DX003 (ip), vehicle: saline with Tween-80",104 % of control
O=C(c1ccccc1)N1OC2C=CC1CC2 (configuration not stated),T/C,[3],104 % of control
same,T/C,[9],98 % of control
same,T/C,[10],109 % of control
CC1OP(=S)(S)OC1C (configuration not stated),T/C,[13],95 % of control
same,T/C,[14],100 % of control
Cc1[nH]n(-c2ccccc2)c(=O)c1N=Nc1cccc(C(F)(F)F)c1,T/C,"dose: 100.0 mg/kg/injection, schedule: Q04DX002 (ip), vehicle: saline",92 % of control
same,T/C,"dose: 200.0 mg/kg/injection, schedule: Q04DX002 (ip), vehicle: saline",99 % of control
same,T/C,"dose: 400.0 mg/kg/injection, schedule: Q04DX002 (ip), vehicle: saline",100 % of control
O=c1c2[nH]c3ccccc3sc=2c(=O)n1-c1ccccc1Cl,T/C,[15],98 % of control
same,T/C,[16],98 % of control
same,T/C,[17],97 % of control
CN(C)P(=O)(Oc1occc1C(C)(C)O)N(C)C,T/C,"dose: 7.5 mg/kg/injection, schedule: Q01DX005 (ip), vehicle: saline",100 % of control
same,T/C,"dose: 15.0 mg/kg/injection, schedule: Q01DX005 (ip), vehicle: saline",102 % of control
CC1=Nc2ccccc2N(C)/C1=C/C1=CC(=O)c2ccccc2C1=O,T/C,[11],108 % of control
same,T/C,[12],117 % of control
Cc1cc(OC(=O)c2c(C)cc(O)cc2O)cc(O)c1C(=O)O,T/C,[4],101 % of control
same,T/C,[5],102 % of control
same,T/C,[6],101 % of control
O=C(Cc1nc2ccccc2s1)Nc1ccc2ccccc2c1,T/C,[18],107 % of control
same,T/C,[16],106 % of control
CCCCN(CCCC)CC(O)c1c(Br)c2ccccc2c2ccccc12 (configuration not stated),T/C,[1],107 % of control
same,T/C,[2],109 % of control
same,T/C,[3],124 % of control
Cc1c([N+](=O)[O-])c(=O)oc2c(C)c3occc(=O)c3cc12,T/C,[19],89 % of control
same,T/C,[20],90 % of control
same,T/C,"dose: 400.0 mg/kg/injection, schedule: Q01DX001 (ip), vehicle: saline with Tween-80",86 % of control
CCN(CC)CCCNc1cc(OC)c(Nc2ccccc2)c2cccnc12,T/C,"dose: 3.12 mg/kg/injection, schedule: Q01DX005 (ip), vehicle: suspension in saline",112 % of control
same,T/C,"dose: 6.25 mg/kg/injection, schedule: Q01DX005 (ip), vehicle: suspension in saline",100 % of control
same,T/C,"dose: 12.5 mg/kg/injection, schedule: Q01DX005 (ip), vehicle: suspension in saline",99 % of control
CN1C(=O)C(C)(C)CN(c2ccccc2)C1=S,T/C,[15],100 % of control
same,T/C,[21],108 % of control
same,T/C,[17],103 % of control
O=S(=O)(c1cc(Cl)c(Cl)cc1Cl)N(CCCCCN(S(=O)(=O)c1cc(Cl)c(Cl)cc1Cl)S(=O)(=O)c1cc(Cl)c(Cl)cc1Cl)S(=O)(=O)c1cc(Cl)c(Cl)cc1Cl,T/C,[7],91 % of control
same,T/C,[8],91 % of control
CN1C(=O)C2CC(=O)N(Cc3ccccc3)C(=O)C2C1=O (configuration not stated),T/C,[15],96 % of control
same,T/C,[21],87 % of control
same,T/C,[17],87 % of control
CC(C)(C)OC(=O)NC(CCCCNC(=O)OCc1ccccc1)C(=O)NC(CCCCNC(=O)OCc1ccccc1)C(=O)NC(CCCCNC(=O)OCc1ccccc1)C(=O)OCc1ccccc1 (configuration not stated),T/C,"dose: 12.5 mg/kg/injection, schedule: Q01DX005 (ip), vehicle: saline with Tween-80",100 % of control
same,T/C,"dose: 25.0 mg/kg/injection, schedule: Q01DX005 (ip), vehicle: saline with Tween-80",97 % of control
same,T/C,[15],100 % of control
CCC(C)C(NC(=O)C(C)NC(=O)OCc1ccccc1)C(=O)O (configuration not stated),T/C,[15],101 % of control
same,T/C,[21],101 % of control
same,T/C,[17],100 % of control
CC[C@@H]1CN2CCc3c([nH]c4ccccc34)[C@@](C(=O)OC)(c3cc4c(cc3OC)N(C)[C@H]3[C@@](O)(C(=O)OC)[C@H](OC(C)=O)[C@]5(CC)C=CCN6CC[C@]43[C@@H]65)C[C@H](C2)[C@H]1O,T/C,"dose: 1.0 mg/kg/injection, schedule: Q01DX001 (ip), vehicle: water",115 % of control
same,T/C,"dose: 2.0 mg/kg/injection, schedule: Q01DX001 (ip), vehicle: water",115 % of control
same,T/C,"dose: 4.0 mg/kg/injection, schedule: Q01DX001 (ip), vehicle: water",117 % of control and 118 % of control
same,T/C,"dose: 32.0 mg/kg/injection, schedule: Q01DX001 (ip), vehicle: water",174 % of control
same,T/C,"dose: 64.0 mg/kg/injection, schedule: Q01DX001 (ip), vehicle: water",150 % of control and 174 % of control
C1=C(/C=C2\CCCc3c(-c4ccccc4)cc(-c4ccccc4)[o+]c32)CCC/C1=C\C1=C2OC(c3ccccc3)=CC(c3ccccc3)=C2CCC1,T/C,[18],102 % of control
same,T/C,[16],93 % of control
same,T/C,"dose: 240.0 mg/kg/injection, schedule: Q01DX005 (ip), vehicle: saline with Tween-80",87 % of control
OCC12CCCC(CO)(COC1)C2O (configuration not stated),T/C,"dose: 25.0 mg/kg/injection, schedule: Q01DX005 (ip), vehicle: saline",105 % of control
same,T/C,[13],105 % of control
same,T/C,[14],100 % of control
same,T/C,"dose: 200.0 mg/kg/injection, schedule: Q01DX005 (ip), vehicle: saline",115 % of control
Clc1ccc(-c2nnc3ncccn23)cc1,T/C,[19],96 % of control
same,T/C,[20],105 % of control
